Reference: the supplement of paper PMC10307832

compound: CN1CCN(CC1)C2=CC(=C(C=C2)NC3=NC(=C(S3)C(=O)C4=C(C=CC=C4Cl)Cl)N)OC [XMD14-99] + O=C(CCCCCCC(=O)Nc1ccccc1)NO [Vorinostat] (partner 1 µM); experiment: relative viability (nuclei count vs DMSO), 5 days (fraction); higher = more cells survive; details: first compound 0.08 µM
How it was run: (§1)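 After 5 days of treatment, lung cancer cells in 1536-well plates were fixed and stained in a single step (final 0.05% Triton X-100, 1% formaldehyde, 1 ug/ml Hoechst) and their nuclei counted on 4× images. Treatment had been applied by pin tool the day after seeding as one drug alone or as a fixed anchor-drug dose with five library-drug doses (not always all listed) in √10 steps. Relative viability is the nuclei count of treated wells divided by that of vehicle wells, and values are medians of duplicate plates.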

Row | Cell Line | relative viability
1 | NCI-H1355 | 0.636
2 | NCI-H322M | 0.862
3 | NCI-H1437 | 0.797
4 | NCI-H1755 | 0.661
5 | NCI-H2085 | 0.768
6 | HCC-15 | 0.839
7 | NCI-H1793 | 0.767
8 | PC-3 [JPC-3] | 1.04
9 | EKVX | 0.701
10 | LC-2-ad | 0.672
11 | NCI-H1944 | 0.547
12 | NCI-H1975 | 0.675
13 | SK-LU-1 | 0.735
14 | ABC-1 | 1.13
15 | NCI-H358 | 0.686
16 | NCI-H661 | 0.807
17 | RERF-LC-KJ | 0.788

same assay, conditions: first compound 0.8 µM

Row | Cell Line | relative viability
18 | NCI-H1355 | 0.604
19 | NCI-H322M | 0.965
20 | NCI-H1437 | 0.66
21 | NCI-H1755 | 0.742
22 | NCI-H2085 | 0.788
23 | HCC-15 | 0.825
24 | NCI-H1793 | 0.916
25 | PC-3 [JPC-3] | 0.843
26 | EKVX | 0.714
27 | LC-2-ad | 0.704
28 | NCI-H1944 | 0.586
29 | NCI-H1975 | 0.673
30 | SK-LU-1 | 0.74
31 | ABC-1 | 0.996
32 | NCI-H358 | 0.653
33 | NCI-H661 | 0.768
34 | RERF-LC-KJ | 0.685

same assay, conditions: first compound 2.53 µM

Row | Cell Line | relative viability
35 | NCI-H1355 | 0.586
36 | NCI-H322M | 0.852
37 | NCI-H1437 | 0.641
38 | NCI-H1755 | 0.686
39 | NCI-H2085 | 0.768
40 | HCC-15 | 0.728
41 | NCI-H1793 | 0.627
42 | PC-3 [JPC-3] | 0.756
43 | EKVX | 0.655
44 | LC-2-ad | 0.646
45 | NCI-H1944 | 0.486
46 | NCI-H1975 | 0.612
47 | SK-LU-1 | 0.813
48 | ABC-1 | 1.01
49 | NCI-H358 | 0.553
50 | NCI-H661 | 0.627
51 | RERF-LC-KJ | 0.553

same assay, conditions: first compound 8 µM

Row | Cell Line | relative viability
52 | NCI-H1355 | 0.556
53 | NCI-H322M | 0.746
54 | NCI-H1437 | 0.382
55 | NCI-H1755 | 0.608
56 | NCI-H2085 | 0.613
57 | HCC-15 | 0.587
58 | NCI-H1793 | 0.52
59 | PC-3 [JPC-3] | 0.539
60 | EKVX | 0.493
61 | LC-2-ad | 0.553
62 | NCI-H1944 | 0.449
63 | NCI-H1975 | 0.475
64 | SK-LU-1 | 0.479
65 | ABC-1 | 0.646
66 | NCI-H358 | 0.309
67 | NCI-H661 | 0.522
68 | RERF-LC-KJ | 0.595

compound: CN1CCN(CC1)C2=CC(=C(C=C2)NC3=NC(=C(S3)C(=O)C4=C(C=CC=C4Cl)Cl)N)OC [XMD14-99] + CCNC(=O)c1noc(-c2cc(C(C)C)c(O)cc2O)c1-c1ccc(CN2CCOCC2)cc1 [Luminespib] (partner 0.01 µM); experiment: as above; details: first compound 0.08 µM
How it was run: as §1

Row | Cell Line | relative viability
69 | NCI-H1355 | 0.843
70 | NCI-H322M | 0.857
71 | NCI-H1437 | 1.12
72 | NCI-H1755 | 0.464
